# Assays:
# Brain [1] = assay: Ratio of drug level in brain after 2 mins to brain after 60 mins in ddY mouse […] at 185 to 370 kBq, iv; format: ADME, organism-based; settings: in vivo
# [2] = Displacement of [125I]IMPY from amyloid beta (1 to 42) after 3 hrs by gamma counting
# Lung [3] = assay: Biodistribution in ddY mouse lung at 185 to 370 kBq, iv after 2 mins by gamma counting; format: ADME, organism-based; settings: in vivo
# Intestine [4] = assay: Biodistribution in ddY mouse intestine at 185 to 370 kBq, iv after 2 mins by gamma counting; format: ADME, organism-based; settings: in vivo
# Lung [5] = assay: Biodistribution in ddY mouse lung at 185 to 370 kBq, iv after 30 mins by gamma counting; format: ADME, organism-based; settings: in vivo, 0.5 h
# Pancreas [6] = assay: Biodistribution in ddY mouse pancreas at 185 to 370 kBq, iv after 30 mins by gamma counting; format: ADME, organism-based; settings: in vivo, 0.5 h
# Heart [7] = assay: Biodistribution in ddY mouse […] at 185 to 370 kBq, iv after 30 mins by gamma counting; format: ADME, organism-based; settings: in vivo, 0.5 h
# Bone [8] = assay: Biodistribution in ddY mouse bone at 185 to 370 kBq, iv after 60 mins by gamma counting; format: ADME, organism-based, Bone element; settings: in vivo, 1 h
# Intestine [9] = assay: Biodistribution in ddY mouse intestine at 185 to 370 kBq, iv after 30 mins by gamma counting; format: ADME, organism-based; settings: in vivo, 0.5 h
# Liver [10] = assay: Biodistribution in ddY mouse liver at 185 to 370 kBq, iv after 2 mins by gamma counting; format: ADME, organism-based; settings: in vivo
# Brain [11] = assay: Biodistribution in ddY mouse brain at 185 to 370 kBq, iv after 60 mins by gamma counting; format: ADME, organism-based; settings: in vivo, 1 h
# Intestine [12] = assay: Biodistribution in ddY mouse intestine at 185 to 370 kBq, iv after 10 mins by gamma counting; format: ADME, organism-based; settings: in vivo
# Kidney [13] = assay: Biodistribution in ddY mouse kidney at 185 to 370 kBq, iv after 2 mins by gamma counting; format: ADME, organism-based; settings: in vivo
# Intestine [14] = assay: Biodistribution in ddY mouse intestine at 185 to 370 kBq, iv after 60 mins by gamma counting; format: ADME, organism-based; settings: in vivo, 1 h
# Spleen [15] = assay: Biodistribution in ddY mouse spleen at 185 to 370 kBq, iv after 10 mins by gamma counting; format: ADME, organism-based; settings: in vivo
# Brain [16] = assay: Biodistribution in ddY mouse brain at 185 to 370 kBq, iv after 2 mins by gamma counting; format: ADME, organism-based; settings: in vivo
# Brain [17] = assay: Biodistribution in ddY mouse brain at 185 to 370 kBq, iv after 30 mins by gamma counting; format: ADME, organism-based; settings: in vivo, 0.5 h
# Brain [18] = assay: Biodistribution in wild type mouse brain at 11.1 MBq, iv after 30 mins by autoradiography; format: ADME, organism-based; settings: in vivo, 0.5 h
# Spleen [19] = assay: Biodistribution in ddY mouse spleen at 185 to 370 kBq, iv after 60 mins by gamma counting; format: ADME, organism-based; settings: in vivo, 1 h
# Blood [20] = assay: Biodistribution in ddY mouse blood at 185 to 370 kBq, iv after 30 mins by gamma counting; format: ADME, organism-based; settings: in vivo, 0.5 h
# Kidney [21] = assay: Biodistribution in ddY mouse kidney at 185 to 370 kBq, iv after 60 mins by gamma counting; format: ADME, organism-based; settings: in vivo, 1 h
# Pancreas [22] = assay: Biodistribution in ddY mouse pancreas at 185 to 370 kBq, iv after 2 mins by gamma counting; format: ADME, organism-based; settings: in vivo
# Liver [23] = assay: Biodistribution in ddY mouse liver at 185 to 370 kBq, iv after 10 mins by gamma counting; format: ADME, organism-based; settings: in vivo
# Liver [24] = assay: Biodistribution in ddY mouse liver at 185 to 370 kBq, iv after 30 mins by gamma counting; format: ADME, organism-based; settings: in vivo, 0.5 h
# Spleen [25] = assay: Biodistribution in ddY mouse spleen at 185 to 370 kBq, iv after 2 mins by gamma counting; format: ADME, organism-based; settings: in vivo
# Brain [26] = assay: Biodistribution in ddY mouse brain at 185 to 370 kBq, iv after 10 mins by gamma counting; format: ADME, organism-based; settings: in vivo
# Lung [27] = assay: Biodistribution in ddY mouse lung at 185 to 370 kBq, iv after 60 mins by gamma counting; format: ADME, organism-based; settings: in vivo, 1 h
# Lung [28] = assay: Biodistribution in ddY mouse lung at 185 to 370 kBq, iv after 10 mins by gamma counting; format: ADME, organism-based; settings: in vivo
# Stomach [29] = assay: Biodistribution in ddY mouse stomach assessed per organ at 185 to 370 kBq, iv after 2 mins by gamma counting; format: ADME, organism-based; settings: in vivo
# Bone [30] = assay: Biodistribution in ddY mouse bone at 185 to 370 kBq, iv after 10 mins by gamma counting; format: ADME, organism-based, Bone element; settings: in vivo
# Spleen [31] = assay: Biodistribution in ddY mouse spleen at 185 to 370 kBq, iv after 30 mins by gamma counting; format: ADME, organism-based; settings: in vivo, 0.5 h
# Bone [32] = assay: Biodistribution in ddY mouse bone at 185 to 370 kBq, iv after 2 mins by gamma counting; format: ADME, organism-based, Bone element; settings: in vivo
# Heart [33] = assay: Biodistribution in ddY mouse […] at 185 to 370 kBq, iv after 2 mins by gamma counting; format: ADME, organism-based; settings: in vivo
# Pancreas [34] = assay: Biodistribution in ddY mouse pancreas at 185 to 370 kBq, iv after 60 mins by gamma counting; format: ADME, organism-based; settings: in vivo, 1 h
# Stomach [35] = assay: Biodistribution in ddY mouse stomach assessed per organ at 185 to 370 kBq, iv after 60 mins by gamma counting; format: ADME, organism-based; settings: in vivo, 1 h
# Heart [36] = assay: Biodistribution in ddY mouse […] at 185 to 370 kBq, iv after 10 mins by gamma counting; format: ADME, organism-based; settings: in vivo
# Stomach [37] = assay: Biodistribution in ddY mouse stomach assessed per organ at 185 to 370 kBq, iv after 10 mins by gamma counting; format: ADME, organism-based; settings: in vivo
# Heart [38] = assay: Biodistribution in ddY mouse […] at 185 to 370 kBq, iv after 60 mins by gamma counting; format: ADME, organism-based; settings: in vivo, 1 h
# Blood [39] = assay: Biodistribution in ddY mouse blood at 185 to 370 kBq, iv after 2 mins by gamma counting; format: ADME, organism-based; settings: in vivo
# Blood [40] = assay: Biodistribution in ddY mouse blood at 185 to 370 kBq, iv after 10 mins by gamma counting; format: ADME, organism-based; settings: in vivo
# Kidney [41] = assay: Biodistribution in ddY mouse kidney at 185 to 370 kBq, iv after 10 mins by gamma counting; format: ADME, organism-based; settings: in vivo
# Bone [42] = assay: Biodistribution in ddY mouse bone at 185 to 370 kBq, iv after 30 mins by gamma counting; format: ADME, organism-based, Bone element; settings: in vivo, 0.5 h
# Pancreas [43] = assay: Biodistribution in ddY mouse pancreas at 185 to 370 kBq, iv after 10 mins by gamma counting; format: ADME, organism-based; settings: in vivo
# Kidney [44] = assay: Biodistribution in ddY mouse kidney at 185 to 370 kBq, iv after 30 mins by gamma counting; format: ADME, organism-based; settings: in vivo, 0.5 h
# Liver [45] = assay: Biodistribution in ddY mouse liver at 185 to 370 kBq, iv after 60 mins by gamma counting; format: ADME, organism-based; settings: in vivo, 1 h
# Blood [46] = assay: Biodistribution in ddY mouse blood at 185 to 370 kBq, iv after 60 mins by gamma counting; format: ADME, organism-based; settings: in vivo, 1 h
# Stomach [47] = assay: Biodistribution in ddY mouse stomach assessed per organ at 185 to 370 kBq, iv after 30 mins by gamma counting; format: ADME, organism-based; settings: in vivo, 0.5 h
# Brain [48] = assay: Biodistribution in Tg2576 transgenic mouse brain at 11.1 MBq, iv after 30 mins by autoradiography; format: ADME, organism-based; settings: in vivo, 0.5 h
compound,measurement,setting,value
CNc1ccc(/C=C/c2ccc(OCCOCCOCC[18F])cc2)cc1 [FLORBETABEN F18],Ratio,Brain [1],4.8
CNc1ccc(-c2nc3ccc(O)cc3s2)cc1 [PITTSBURGH COMPOUND B UNLABELLED],Ki,[2],9 nM
CN(C)c1ccc(-c2cc3cc(OCCOCCOCCF)ccc3o2)cc1,Ki,[2],2 nM
CNc1ccc(-c2cc3cc(OCCOCCOCC[18F])ccc3o2)cn1,Drug uptake,Lung [3],5.68 % ID/g
same,Drug uptake,Intestine [4],4.24 % ID/g
same,Drug uptake,Lung [5],4.34 % ID/g
same,Drug uptake,Pancreas [6],4.91 % ID/g
same,Drug uptake,Heart [7],3.59 % ID/g
same,Drug uptake,Bone [8],1.72 % ID/g
same,Drug uptake,Intestine [9],24.1 % ID/g
same,Ratio,Brain [1],2.34
same,Drug uptake,Liver [10],16.8 % ID/g
same,Drug uptake,Brain [11],3.15 % ID/g
same,Drug uptake,Intestine [12],8.39 % ID/g
same,Drug uptake,Kidney [13],11.9 % ID/g
same,Drug uptake,Intestine [14],30.9 % ID/g
same,Drug uptake,Spleen [15],2.15 % ID/g
same,Drug uptake,Brain [16],7.38 % ID/g
same,Drug uptake,Brain [17],4.03 % ID/g
same,Drug uptake,Brain [18],Not Active
same,Drug uptake,Spleen [19],2.24 % ID/g
same,Drug uptake,Blood [20],2.66 % ID/g
same,Drug uptake,Kidney [21],3.7 % ID/g
same,Drug uptake,Pancreas [22],5.14 % ID/g
same,Drug uptake,Liver [23],17.5 % ID/g
same,Drug uptake,Liver [24],19.2 % ID/g
same,Drug uptake,Spleen [25],2.91 % ID/g
same,Drug uptake,Brain [26],4.86 % ID/g
same,Drug uptake,Lung [27],2.88 % ID/g
same,Drug uptake,Lung [28],3.12 % ID/g
same,Drug uptake,Stomach [29],3.73 %ID
same,Drug uptake,Bone [30],1.63 % ID/g
same,Drug uptake,Spleen [31],3.14 % ID/g
same,Drug uptake,Bone [32],2.65 % ID/g
same,Drug uptake,Heart [33],5.19 % ID/g
same,Drug uptake,Pancreas [34],2.55 % ID/g
same,Drug uptake,Stomach [35],22.5 %ID
same,Drug uptake,Heart [36],2.51 % ID/g
same,Drug uptake,Stomach [37],7.55 %ID
same,Drug uptake,Heart [38],2.6 % ID/g
same,Drug uptake,Blood [39],4.96 % ID/g
same,Drug uptake,Blood [40],3.02 % ID/g
same,Drug uptake,Kidney [41],6.22 % ID/g
same,Drug uptake,Bone [42],1.79 % ID/g
same,Drug uptake,Pancreas [43],2.68 % ID/g
same,Drug uptake,Kidney [44],7.83 % ID/g
same,Drug uptake,Liver [45],8.71 % ID/g
same,Drug uptake,Blood [46],2.42 % ID/g
same,Drug uptake,Stomach [47],18.8 %ID
same,Drug uptake,Brain [48],Active
CN(C)c1ccc(-c2cc3cc(OCCOCCOCC[18F])ccc3o2)cn1,Ratio,Brain [1],2.11
CNc1ccc(-c2cc3cc(OCCOCCOCC[18F])ccc3o2)cc1,Drug uptake,Bone [8],3.3 % ID/g
same,Ratio,Brain [1],2.11
same,Drug uptake,Brain [11],3.87 % ID/g
same,Drug uptake,Brain [16],8.18 % ID/g
same,Drug uptake,Brain [17],4.26 % ID/g
same,Drug uptake,Brain [18],Not Active
same,Drug uptake,Blood [20],5.33 % ID/g
same,Drug uptake,Brain [26],6.43 % ID/g
same,Drug uptake,Bone [30],1.98 % ID/g
same,Drug uptake,Bone [32],1.57 % ID/g
same,Drug uptake,Blood [39],4.1 % ID/g
same,Drug uptake,Blood [40],4.17 % ID/g
same,Drug uptake,Bone [42],2.07 % ID/g
same,Drug uptake,Blood [46],7.33 % ID/g
same,Drug uptake,Brain [48],Active
